The values that follow come from ChEMBL document CHEMBL1143524, “Anti-tumor abietane diterpenes from the cones of Sequoia sempervirens” (2005).

Common to all, as to type: functional
In one experiment the test system is NCI-H23. Kind of experiment: Growth inhibitory activity against human NCI-H23 lung tumor cell line.
The next experiment deals with MDA-MB-231. Kind of experiment: Growth inhibitory activity against human MDA-MB-231 breast tumor cell line.
Another experiment concerns HCT-116. Kind of experiment: Growth inhibitory activity against human HCT116 colon tumor cell line.
In a further experiment the test system is SW-620. Kind of experiment: Growth inhibitory activity against human SW620 colon tumor cell line.
The species named for a further experiment is Rattus norvegicus. Kind of experiment: Growth inhibitory activity against H-ras transformed rat 2 tumor cell line. To be noted: Rat2.
Another experiment concerns A549. Kind of experiment: Inhibitory activity against human A549 lung tumor cell proliferation.

Converted amounts (≈) assume the structure as drawn. Where only a bound is given, the exact number is not on record here.

One may read the GI50 as the concentration giving 50% growth inhibition. A higher GI50 goes with lower sensitivity of the cells. As for `CC(C)c1cc2c(cc1O)[C@@]1(C)CCCC(C)(C)[C@@H]1C(O)C2=O` (some centres not stated), the GI50 came out at 2.21 µg/mL (≈ 6.98 µM) in the experiment with NCI-H23; 3.64 µg/mL (≈ 11.5 µM) in the experiment with MDA-MB-231; 2.52 µg/mL (≈ 7.96 µM) in the experiment on HCT-116; 3.98 µg/mL (≈ 12.6 µM) in the experiment on SW-620; 3.5 µg/mL (≈ 11.1 µM) in the experiment filed under Rattus norvegicus; 1.42 µg/mL (≈ 4.49 µM) in the experiment on A549.

In the case of `CC(C)c1cc2c(cc1O)[C@@]1(C)CCC[C@@](C)(CO)[C@@H]1CC2` [18-HYDROXYFERRUGINOL], the GI50 in the experiment with NCI-H23, in the experiment on MDA-MB-231, in the experiment on HCT-116, with SW-620 and with A549 was less than 50 µg/mL in each case.

`CC(C)c1cc2c(cc1O)[C@@]1(C)CCCC(C)(C)[C@@H]1CC2` [FERRUGINOL]: the GI50 with NCI-H23, in the experiment on MDA-MB-231, with HCT-116, in the experiment on SW-620 and with A549 was less than 50 µg/mL in each case.

As for `CC(C)c1cc2c(cc1O)[C@@]1(CO)CCCC(C)(C)[C@@H]1CC2` [PISIFEROL], the GI50 turned out to be 2.8 µg/mL (≈ 9.26 µM) in the experiment on NCI-H23; 8.34 µg/mL (≈ 27.6 µM) in the experiment with MDA-MB-231; 4.34 µg/mL (≈ 14.3 µM) in the experiment on HCT-116; 8.22 µg/mL (≈ 27.2 µM) in the experiment on SW-620; 2.3 µg/mL (≈ 7.6 µM) in the experiment filed under Rattus norvegicus; 2.9 µg/mL (≈ 9.59 µM) in the experiment with A549.

In the case of `CC(C)c1cc2c(cc1O)[C@@]1(C)CCCC(C)(C)[C@@H]1CC2=O` [SUGIOL], the GI50 in the experiment with NCI-H23, in the experiment on MDA-MB-231, in the experiment with HCT-116, in the experiment on SW-620 and in the experiment with A549 was less than 50 µg/mL in each case.
